Assay results published in paper PMC11279778 (2024).

System: Bcl-2 G-quadruplex (2F8U, 23-mer with 15,16-G-to-T mutations) (DNA, G4) GGGCGCGGGAGGAATTGGGCGGG
Assay: CD melting at 265 nm
Settings: 100 mM KCl; 10 mM Tris-HCl pH 7.2; 3 eq ligand, 2 µM DNA

| ΔTm [°C] | SMILES |
| --- | --- |
| 6.3 | CC[n+]1c(/C=C/c2ccc3c(c2)c2ccccc2n3CCCCn2ccnc2)sc2ccccc21 |
| 3.0 | CC[n+]1c(/C=C/c2ccc3c(c2)c2ccccc2n3CCCCn2cncn2)sc2ccccc21 |
| 3.1 | CCn1c2ccccc2c2cc(/C=C/c3sc4ccccc4[n+]3CC)ccc21 |
